# Patent US4795643A, “Medicament with a delayed release of active ingredient” (priority 1987, dated 1989)
# Test: Dissolution Paddle Apparatus (U.S. Pharmacopoeia XX): rate of release of active ingredient from the capsule in water
# Type: physicochemical
# Experimental: For this purpose, the total amount of active ingredient released (cumulative values) is determined after fixed periods of time, in particular after 1, 2, 4, 6 and 8 hours, and this amount is expressed in % by weight of the amount of active ingredient contained in the capsule.
SMILES,"release of diltiazem.HCl (absence of a polymer, 1.5 hours) [%]","release of diltiazem.HCl (ethylcellulose, HLB of 10.5, 6 hours) [%]","release of diltiazem.HCl (ethylcellulose, HLB of 11.5, 3 hours) [%]","release of ibuprofen (PEG 300-stearate (HLB=9 to 10) with Eudragit S 100 added, 2 hours) [%]","release of ibuprofen (PEG 1500-stearate (HLB=17) with Eudragit S 100 added, 8 hours) [%]","release of ibuprofen (mixture with PEG 300-stearate, 1 hour) [%]","release of ibuprofen (mixture with PEG 1500-stearate, 0.25 hour) [%]"
"COc1ccc(C2Sc3ccccc3N(CCN(C)C)C(=O)C2OC(C)=O)cc1.Cl (stereo not shown) [diltiazem.HCl, 3-acetoxy-5-(2-dimethylaminoethyl)-2,3-dihydro-2-(4-methoxyphenyl)-1,5-benzothiazepin-4(5H)-one hydrochloride]",92.5,68.5,84.5,–,–,–,–
"CC(C)Cc1ccc(C(C)C(=O)O)cc1 (stereo not shown) [ibuprofen, 2-(4-isobutylphenyl)-propionic acid]",–,–,–,91.4,84.8,98.1,97
